In experiment [1] the target is Calcium/calmodulin-dependent protein kinase type II subunit alpha (Homo sapiens) (UniProt Q9UQM7). Kind of experiment: Inhibition of CAMK2A (unknown origin) assessed as residual activity at 100 nM by KINOMEscan analysis relative to control.
The target of experiment [2] is Ephrin type-A receptor 2 (Homo sapiens) (UniProt P29317). Kind of experiment: Inhibition of EPHA2 (unknown origin) assessed as residual activity at 100 nM by KINOMEscan analysis relative to control.
Experiment [3] has as its target T1, Dual specificity mitogen-activated protein kinase kinase 4 (Homo sapiens) (UniProt P45985).
T1 sequence (whole entry): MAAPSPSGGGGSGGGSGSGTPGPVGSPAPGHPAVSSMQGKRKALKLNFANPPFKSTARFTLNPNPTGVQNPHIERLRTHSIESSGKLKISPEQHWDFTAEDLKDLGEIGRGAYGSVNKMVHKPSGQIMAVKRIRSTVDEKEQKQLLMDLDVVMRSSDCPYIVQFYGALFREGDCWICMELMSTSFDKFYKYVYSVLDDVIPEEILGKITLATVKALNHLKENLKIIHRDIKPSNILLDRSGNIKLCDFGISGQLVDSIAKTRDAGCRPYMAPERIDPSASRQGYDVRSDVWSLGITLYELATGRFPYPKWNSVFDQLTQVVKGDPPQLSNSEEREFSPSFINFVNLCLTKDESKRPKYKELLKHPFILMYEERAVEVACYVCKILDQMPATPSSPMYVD
In words: Inhibition of MEK4 (unknown origin) assessed as residual activity at 100 nM by KINOMEscan analysis relative to control.

The target of experiment [4] is T2, Serine/threonine-protein kinase DCLK2 (Homo sapiens) (UniProt Q8N568).
T2 sequence (whole entry): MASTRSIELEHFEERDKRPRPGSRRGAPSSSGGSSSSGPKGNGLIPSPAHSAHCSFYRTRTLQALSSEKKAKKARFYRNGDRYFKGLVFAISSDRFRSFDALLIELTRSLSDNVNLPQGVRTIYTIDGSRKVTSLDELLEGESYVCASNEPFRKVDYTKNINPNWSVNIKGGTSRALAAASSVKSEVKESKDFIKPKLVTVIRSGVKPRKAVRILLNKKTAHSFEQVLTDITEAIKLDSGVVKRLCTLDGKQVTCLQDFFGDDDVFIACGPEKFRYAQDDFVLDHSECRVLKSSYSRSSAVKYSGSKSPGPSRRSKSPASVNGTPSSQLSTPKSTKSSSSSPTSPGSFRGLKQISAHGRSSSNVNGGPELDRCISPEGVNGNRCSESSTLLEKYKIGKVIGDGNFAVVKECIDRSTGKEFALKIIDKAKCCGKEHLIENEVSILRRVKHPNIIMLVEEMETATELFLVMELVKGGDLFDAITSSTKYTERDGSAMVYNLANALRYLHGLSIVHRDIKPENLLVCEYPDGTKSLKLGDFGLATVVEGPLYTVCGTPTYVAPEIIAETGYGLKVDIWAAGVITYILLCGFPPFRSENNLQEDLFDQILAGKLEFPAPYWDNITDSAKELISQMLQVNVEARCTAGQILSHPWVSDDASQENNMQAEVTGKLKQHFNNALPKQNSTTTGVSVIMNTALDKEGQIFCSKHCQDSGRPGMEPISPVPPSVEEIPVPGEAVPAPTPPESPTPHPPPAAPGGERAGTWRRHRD
In words: Inhibition of DCAMKL2 (unknown origin) assessed as residual activity at 100 nM by KINOMEscan analysis relative to control.

For experiment [5], the target named is Protein-tyrosine kinase 6 (Homo sapiens) (UniProt Q13882). In words: Inhibition of BRK (unknown origin) assessed as residual activity at 100 nM by KINOMEscan analysis relative to control.
In experiment [6] the target is T3, Non-receptor tyrosine-protein kinase TNK1 (Homo sapiens) (UniProt Q13470).
T3 sequence (whole entry): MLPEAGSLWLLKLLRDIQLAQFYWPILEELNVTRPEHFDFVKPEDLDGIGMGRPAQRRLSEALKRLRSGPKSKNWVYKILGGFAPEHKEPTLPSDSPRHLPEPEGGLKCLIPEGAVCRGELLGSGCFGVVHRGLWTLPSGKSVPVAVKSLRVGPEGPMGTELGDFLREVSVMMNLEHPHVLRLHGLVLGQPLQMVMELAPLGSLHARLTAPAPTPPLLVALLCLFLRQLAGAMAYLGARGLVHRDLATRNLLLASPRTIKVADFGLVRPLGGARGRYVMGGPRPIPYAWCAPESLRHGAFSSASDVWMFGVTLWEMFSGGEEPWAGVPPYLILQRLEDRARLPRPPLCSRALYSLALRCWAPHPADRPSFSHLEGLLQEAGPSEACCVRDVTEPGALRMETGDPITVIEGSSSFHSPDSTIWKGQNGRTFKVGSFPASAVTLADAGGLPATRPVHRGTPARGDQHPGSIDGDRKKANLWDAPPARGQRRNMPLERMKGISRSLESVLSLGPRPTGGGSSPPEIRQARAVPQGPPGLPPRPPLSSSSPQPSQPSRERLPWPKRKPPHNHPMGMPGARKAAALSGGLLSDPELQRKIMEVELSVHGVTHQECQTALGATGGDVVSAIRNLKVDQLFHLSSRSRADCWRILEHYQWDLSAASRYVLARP
In words: Inhibition of TNK1 (unknown origin) assessed as residual activity at 100 nM by KINOMEscan analysis relative to control.

Experiment [7] has as its system SOS1-KRAS (Homo sapiens), Q07889+P01116 [G12C]. In words: Inhibition of N-terminal GST-tagged recombinant human KRAS G12C mutant (1 to 169 residues) expressed in Escherichia coli/N-terminal His10-tagged wild-type recombinant human SOS1 catalytic domain (564 to 1049 residues) expressed in Escherichia coli protein-protein interaction assessed as reduction in FRET signal by HTRF analysis. (TR-FRET usually uses a lanthanide donor and a delayed reading to cut background.)

For experiment [8], the target named is Serine/threonine-protein kinase PAK 3 (Homo sapiens) (UniProt O75914). Kind of experiment: Inhibition of PAK3 (unknown origin) assessed as residual activity at 100 nM by KINOMEscan analysis relative to control.

Active and inactive are the calls of the source. The calls are words filed in the database; no cut-off is given here.

Sequence of Ephrin type-A receptor 2 (Homo sapiens) (P29317 whole entry): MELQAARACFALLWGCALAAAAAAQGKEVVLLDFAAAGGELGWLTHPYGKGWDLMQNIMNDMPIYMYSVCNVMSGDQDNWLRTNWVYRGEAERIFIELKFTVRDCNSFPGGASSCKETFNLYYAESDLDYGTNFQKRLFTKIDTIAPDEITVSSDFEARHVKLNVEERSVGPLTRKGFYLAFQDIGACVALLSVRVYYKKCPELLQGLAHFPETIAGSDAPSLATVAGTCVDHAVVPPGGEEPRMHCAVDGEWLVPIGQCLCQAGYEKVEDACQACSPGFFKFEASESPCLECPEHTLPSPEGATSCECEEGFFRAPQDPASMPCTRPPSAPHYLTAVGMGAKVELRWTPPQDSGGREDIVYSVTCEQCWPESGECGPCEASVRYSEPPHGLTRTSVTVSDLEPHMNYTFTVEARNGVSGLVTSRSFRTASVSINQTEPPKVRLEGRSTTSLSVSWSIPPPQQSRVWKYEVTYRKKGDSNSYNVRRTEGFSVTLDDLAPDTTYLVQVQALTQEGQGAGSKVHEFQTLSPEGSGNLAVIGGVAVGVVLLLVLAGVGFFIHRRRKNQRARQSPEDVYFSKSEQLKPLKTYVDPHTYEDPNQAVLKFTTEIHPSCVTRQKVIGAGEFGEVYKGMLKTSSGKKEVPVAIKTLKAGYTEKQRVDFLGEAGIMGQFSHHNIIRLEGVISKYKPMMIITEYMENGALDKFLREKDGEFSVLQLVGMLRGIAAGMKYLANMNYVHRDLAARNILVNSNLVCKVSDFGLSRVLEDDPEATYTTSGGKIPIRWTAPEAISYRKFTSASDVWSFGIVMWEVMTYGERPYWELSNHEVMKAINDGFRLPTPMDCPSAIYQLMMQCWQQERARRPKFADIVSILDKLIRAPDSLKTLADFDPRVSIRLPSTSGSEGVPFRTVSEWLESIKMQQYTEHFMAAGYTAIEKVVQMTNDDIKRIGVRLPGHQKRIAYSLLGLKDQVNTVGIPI
Sequence of Protein-tyrosine kinase 6 (Homo sapiens) (Q13882 whole entry, looked up): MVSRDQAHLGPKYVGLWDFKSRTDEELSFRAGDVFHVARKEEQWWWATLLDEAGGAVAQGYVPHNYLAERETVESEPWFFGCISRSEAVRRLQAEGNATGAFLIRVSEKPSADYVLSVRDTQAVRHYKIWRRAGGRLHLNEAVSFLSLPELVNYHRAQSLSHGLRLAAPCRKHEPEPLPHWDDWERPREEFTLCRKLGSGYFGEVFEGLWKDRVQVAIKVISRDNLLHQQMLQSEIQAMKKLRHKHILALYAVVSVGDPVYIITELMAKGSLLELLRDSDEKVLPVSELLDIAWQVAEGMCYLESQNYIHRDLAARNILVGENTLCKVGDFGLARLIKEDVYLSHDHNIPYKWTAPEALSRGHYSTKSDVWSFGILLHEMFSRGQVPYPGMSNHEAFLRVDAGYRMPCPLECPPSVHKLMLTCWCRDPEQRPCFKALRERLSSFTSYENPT
Sequence of Serine/threonine-protein kinase PAK 3 (Homo sapiens) (O75914 whole entry, looked up): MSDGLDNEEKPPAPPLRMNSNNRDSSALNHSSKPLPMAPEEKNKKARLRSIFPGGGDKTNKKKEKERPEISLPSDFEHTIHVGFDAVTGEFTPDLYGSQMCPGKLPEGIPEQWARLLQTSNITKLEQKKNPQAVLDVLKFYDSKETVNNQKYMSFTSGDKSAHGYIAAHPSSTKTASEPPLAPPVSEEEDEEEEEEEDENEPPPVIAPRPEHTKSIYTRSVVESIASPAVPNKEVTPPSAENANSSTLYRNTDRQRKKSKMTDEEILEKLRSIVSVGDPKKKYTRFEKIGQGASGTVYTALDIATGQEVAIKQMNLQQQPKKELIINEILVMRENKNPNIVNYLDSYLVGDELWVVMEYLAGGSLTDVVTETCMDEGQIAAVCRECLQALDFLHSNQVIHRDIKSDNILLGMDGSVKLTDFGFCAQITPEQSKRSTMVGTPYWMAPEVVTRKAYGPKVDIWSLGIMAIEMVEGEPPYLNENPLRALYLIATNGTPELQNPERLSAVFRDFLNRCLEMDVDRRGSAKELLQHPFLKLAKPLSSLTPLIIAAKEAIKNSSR
Sequence of Calcium/calmodulin-dependent protein kinase type II subunit alpha (Homo sapiens) (Q9UQM7 whole entry): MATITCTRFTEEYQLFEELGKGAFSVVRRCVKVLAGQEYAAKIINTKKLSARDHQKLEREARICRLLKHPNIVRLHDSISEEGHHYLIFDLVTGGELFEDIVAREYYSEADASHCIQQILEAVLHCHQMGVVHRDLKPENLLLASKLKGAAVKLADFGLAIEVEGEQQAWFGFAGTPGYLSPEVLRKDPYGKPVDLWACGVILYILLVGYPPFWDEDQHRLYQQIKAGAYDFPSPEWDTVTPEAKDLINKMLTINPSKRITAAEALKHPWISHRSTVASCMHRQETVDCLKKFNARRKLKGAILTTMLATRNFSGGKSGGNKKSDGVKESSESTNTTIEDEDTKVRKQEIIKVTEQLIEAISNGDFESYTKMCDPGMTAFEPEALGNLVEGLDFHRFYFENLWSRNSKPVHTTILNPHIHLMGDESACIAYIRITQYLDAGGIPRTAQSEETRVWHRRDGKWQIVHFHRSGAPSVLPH

As to `COc1cc2ncnc(N[C@H](C)c3cccc4ccccc34)c2cc1OC`, the Activity worked out at 96% in experiment [1]; 82% in experiment [2]; 93% in experiment [3]; 82% in experiment [4]; 80% in experiment [5]; 86% in experiment [6]. The Activity in experiment [8] came to 74%. Besides, the result in experiment [7] was Active.

These data come from ChEMBL document CHEMBL5678818, “Discovery of potent SOS1 inhibitors that block RAS activation via disruption of the RAS-SOS1 interaction” (Proc Natl Acad Sci U S A, 2019).
